Measured values: patent publication US12364695B2, “Methods of treating inflammatory disease” (INTRA-CELLULAR THERAPIES, INC., priority 2020, dated 2025)

Assays:
[1] = test system: cytokine markers (IFNγ, IL-1β, MCP1-β, TNF-α, IL10); assay: Inflammatory biomarkers in mouse zymosan pleurisy model; assay type: in vivo; conditions: after 4 hours
Method: (§1) Zymosan was injected into the pleural cavities of mice in order to induce sterile inflammation by the methods discussed in Example 1. Compound 1 was administered to test subjects to observe the effects on a variety of inflammatory biomarkers. Results were recorded after 4 hours. […] IFNγ, IL-1β, MCP1-β and TNF-α decreased following administration of Compound 1 in all serum and plasma samples.

BV2 cells = assay: Microglia chemotaxis assay (Transwell, ADP); assay type: cell-based; conditions: 100 μM ADP, 4 hours, FIG. 10
Method: BV2 cells were added to upper chamber of a 5 μm pore Transwell 96-well plate over a reservoir containing 100 μM ADP and incubated at 37° C. with 5% CO2 for 4 hours. After the incubation cells were harvested with pre-warmed cell detachment solution for 30 minutes in the same incubation conditions. 75 μl of this cell detachment solution was combined with 75 μl of culture medium in a new 96 well plate compatible with a fluorescence reader. Cell number in bottom chamber was determined by adding CyQuant® GR dye and reading in the Envision fluorescence reader at 480 nm EX/520 nm EM.

[2] = test system: leukocytes, neutrophils, and macrophages (M1/M2) at the site of inflammation; assay: Mouse zymosan model of sterile inflammation, flow cytometry of infiltrating cells; assay type: in vivo; conditions: for inflammatory resolution (shift from M1 to M2 macrophages): zymosan injection, FIGS. 1-9
Method: (§2) Zymosan is injected into the pleural cavities of mice in order to induce sterile inflammation. Infiltration of leukocytes, neutrophils, and macrophages are monitored at days 3 and 7 following injection. Detection of various cell types are identified according to the gating strategy outlined in Table 1 below.
In this model, injection of zymosan causes the recruitment of various waves of leukocytes, which are observed and recorded. Exudate volume increases to a maximum over a period of 24 hours, and neutrophils increase within 4 hours and reach a maximum by 48 hours. Lymphocytes of the adaptive immune system enter at a later stage, after three days, which is signaled by macrophages presenting antigens. A resolution phase is well documented in this model and is accompanied by decreased total macrophage number and transition into M2 phenotype.
In the studies, Compounds 1 and 2 were administered to the test subjects, and the effect the compounds had on infiltration of leukocytes, neutrophils, and macrophages was observed.
Similar tests were conducted with Compound 2, the results of which are illustrated in FIGS. 8 and 9. […] An additional test was carried out according to the same method. Mice were injected intraperitoneally with 1 mg Zymosan followed by 10 mg/kg Compound 1. Macrophage levels were recorded at injection, then at 4, 8, 16, 24, 48 and 72 hours post-injection.

[3] = test system: Arachidonic Acid Metabolites; assay: Detection of arachidonic acid metabolites, mouse zymosan pleurisy model; assay type: in vivo; conditions: compared with controls
Method: as §1
(§3) Lipids are known to be involved in regulation of a multitude of cellular responses including cell growth and death, and inflammation/infection, via receptor-mediated pathways. Various lipids are involved in both the initiation and resolution of inflammation. Pro-resolving lipid mediators are produced naturally in the body from unsaturated fatty acids, such as arachidonic acid (AA) and docosahexaenoic acid (DHA). Further studies were carried out to identify metabolites of AA and DHA, which are summarized below in Tables 2 and 3.
(§4) As shown above in relation to AA metabolism, 12-HETE and 15-HETE, both intermediate mediators leading to resolution of inflammation, show increased occurrence compared with controls, while pro-inflammatory mediators TXB2, PGE2 and LTB4 all decrease. For the metabolism of DHA, each of 17-HDOHE, RVD5 and 14-HDOHE increase, all of which are related to resolution of inflammation.

[4] = test system: Docosahexaenoic Acid Metabolites; assay: Detection of docosahexaenoic acid metabolites, mouse zymosan pleurisy model; assay type: in vivo; conditions: compared with controls
Method: as §1, §3, §4

MCP-1/CCL2 = assay: Cytokine production in plasma following zymosan sterile insult (FIG. 7); assay type: in vivo, mouse; conditions: at 3 and 7 days, in comparison with control groups
Method: FIG. 7 depicts cytokine production in plasma in test subjects following sterile insult when treated with Compound 1.
as §2

CN1C(=O)c2c(nn(Cc3ccc(-c4cccc(F)n4)cc3)c2Nc2ccccc2)N2C1=N[C@@H]1CCC[C@@H]12 [Compound 1]
IFNγ ([1]; serum and plasma): decreased
IL-1β ([1]; serum and plasma): decreased
MCP1-β ([1]; serum and plasma): decreased
TNF-α ([1]; serum and plasma): decreased
IL10 ([1]; serum): decrease
motility of BV2 cells across the membrane (BV2 cells): marked dampening effect
M1 macrophage levels (CD80+, iNOS+) ([2]; 1 mg Zymosan i.p. then 10 mg/kg, all observed times, FIGS. 11A and 11B): lower
Arg1+ M2 macrophages ([2]; 10 mg/kg, at 4 hours, FIG. 12A): increased
CD206+ M2 macrophages ([2]; 10 mg/kg, relative to control at 2 and 3 days, FIG. 12B): significantly increased
total numbers of CD38+ macrophages ([2]; day 3, FIG. 5A): decreased
number of Egr2+ macrophages ([2]; day 3, all animal groups, FIG. 5B): decreased
MFI for CD38+ on macrophages ([2]; day 3, increase in all groups, FIG. 6A): lowest value
MFI for CD38+ on macrophages ([2]; day 7, all groups): decreased
percentage of neutrophils relative to CD45+ leukocytes ([2]; day 7, all subjects, FIG. 3B): dropped significantly
number of neutrophils ([2]; day 7, compared with disease only and vehicle animals, FIG. 3A): less dramatic decrease
MFI for Egr2+ on macrophages ([2]; days 3 and 7, compared to naïve, all groups): decreased
Egr2+ cell number and percent ([2]; overall trend, day 7): tended to increase
number of CD38+ cells ([2]; overall trend, day 7): tended to decrease
inflammatory resolution (shift from M1 to M2 macrophages) [2]: enhanced inflammatory resolution
5-HETE (intermediate mediator linked to resolution) [3]: No change
12-HETE (intermediate mediator linked to resolution) [3]: Increase
15-HETE (intermediate mediator linked to resolution) [3]: Increase
LTB4 (pro-inflammatory mediator) [3]: No change
PGE2 (pro-inflammatory mediator) [3]: Decrease
TXB2 (pro-inflammatory mediator) [3]: Decrease
14-HDOHE (resolution mediator) [4]: Increase
17-HDOHE (intermediate mediator linked to resolution) [4]: Increase
RVD5 (intermediate mediator linked to resolution) [4]: Increase
inflammatory biomarkers (MCP-1/CCL2) in plasma (MCP-1/CCL2): less inflammatory biomarkers

CN1C(=O)c2c(nn(Cc3ccc(-c4ccccn4)cc3)c2Nc2ccccc2)N2C1=N[C@@H]1CCC[C@@H]12 [Compound 2]
CD38+ macrophages ([2]; 3 mg/kg, day 7, FIG. 8): significant drop
Erg2+ macrophages ([2]; 3 mg/kg, day 7, FIG. 9): sharp and significant increase
inflammatory resolution (shift from M1 to M2 macrophages) [2]: enhanced inflammatory resolution
